Assay results published in patent US9956168B2, “Extended release drug-delivery contact lenses and methods of making” (Mercy Medical Research Institute, priority 2013, dated 2018).

Tested on: MKP-1
Experiment: In vitro effective dose study (Western blots for MKP-1 on HeLa cells)
Assay type: cell-based
Details: HeLa cells incubated with varying concentration; extrapolated

SMILES: CC(=O)OCC(=O)[C@@]1(O)CC[C@H]2[C@@H]3CCC4=CC(=O)C=C[C@]4(C)[C@H]3[C@@H](O)C[C@@]21C [Prednisolone-21-acetate]
- in vitro effective dose: 5-10 ppm
